Where a name gives a salt, the structure may show the parent alone.
How the values were obtained:
rat pulmonary artery = assay: Isometric force of 5-HT-constricted pulmonary artery rings
Protocol: Wistar rats were euthanized with an overdose of sodium pentobarbital (60 mg/kg, i.p.) before open-chest surgery. During surgery, a thoracic retractor was used to help isolate the pulmonary artery. The chest was opened to dissect the second branches of the main pulmonary artery, which were cut into 2-3 mm rings, suspended under isometric conditions and connected to a force transducer as previously described (Ugo Basile, Model 7004, Comerio-VA, Italy) (Schach et al., 2007) to measure the constriction caused by 5-HT (10 μM). The pulmonary artery ring preparations were stretched to a basal tension of 1 g and allowed to equilibrate for 60-90 min. After equilibration, pulmonary artery rings were constricted with 5-HT (10 μM) to prime the tissues and check the functionality of the endothelium (at least 80% relaxation in response to acetylcholine 1 μM). Once the contractile response to each agonist reached a stable tension, KMUP-1 (0.1-100 μM) was cumulatively added to the organ bath in the presence of 5-HT (10 μM, pre-incubation time of 15 min).
The effect of KMUP-1 on NOS and 5-HT was also studied in vessels pre-incubated with the NOS inhibitor L-NAME (100 μM) 20 min before 5-HT administration. The percentage of relaxation was estimated using the following equation: relaxation (%)=(maximal contraction—relaxation level)/(maximal contraction-basal level)×100. Data was obtained from serotonin-induced maximal contractile responses in pulmonary artery.

[1] = tested on: human pulmonary artery endothelial cell (HPAEC); assay: Nitric oxide production in HPAEC (Griess method); assay type: cell-based; settings: 5-HT 10 μM for 30 min
Protocol: (§1) HPAEC purchased from ATCC were maintained in humidified incubator containing 5% CO2 at 37° C. HPAEC were cultured in F-12 supplemented with 10% fetal bovine serum. The culture medium was changed every 3 days and cells were subcultured until confluence. HPAEC were harvested with a solution of trypsin-EDTA (GIBCO BRL, NY, USA) while in a logarithmic phase of growth. HPAEC were used between passages 4-8.
Production of NO in HPAEC was determined using the Griess method (Niwano et al., 2003). The three step Greiss test converts nitrate (NO3^−) into nitrite (NO2^−) giving a total NO2^− concentration from a standard calibration curve. HPAEC were incubated with or without KMUP-1 (10 μM) for 24 h and then incubated with 5-HT (10 μmol/L) for 30 min. Media samples from HPAEC were taken and the NO concentration was determined. Six independent experiments were carried out and data are reported as the mean mean±SEM.

eNOS = assay: Expression of eNOS in HPAEC (Western blotting); assay type: cell-based, human
Protocol: as §1
PASMCs were stimulated with 5-HT or not, as indicated. Cells were treated with KMUP-1 for 24 h before 5-HT stimulation. Whole lysates were collected and resolved by SDS-PAGE as previously described (Liu et al., 2004). Primary antibodies were anti-β-actin at: 1:10,000 dilution and anti-RhoA, anti-ROCK, antiphospho-ERK1/2, anti-ERK1/2, anti-phospho-AKT, anti-AKT, anti-5HTT, anti-5-HT2B and anti-eNOS at 1:1000. All blots were incubated with antibodies at 4° C. overnight. After being washed, the appropriate secondary antibodies were added at a dilution of 1:1000 for 1 h at room temperature. After extensive washing, blots were developed with a Super Signal enhanced chemiluminescence kit (Biorad, CA, USA) and visualized on Kodak AR film.
To measure the expression of eNOS and 5-HT2B receptor in HPAEC after incubation with KMUP-1(1-100 μM) for 24 h, whole lysates were collected for Western blotting assay. The relative density was determined using NIH imaging software.

AKT = assay: 5-HT-induced phosphorylation of AKT in PASMCs; assay type: cell-based, rat
Protocol: (§2) Wistar rats were anesthetized with an overdose of sodium pentobarbital (60 mg/kg) and the skin was sterilized with 75% alcohol. The chest was opened and the heart and lung were removed. The organs were rinsed several times in PBS. The pulmonary arterys (PAs) were segregated in a sterile manner. The outer sphere was peeled and the microtubule was snipped visually, and endothecia were shaved lightly 2-3 times in order to remove endothelial cells. The tunica media was prepared into scraps (1 mm^3) in DMEM (Dulbecco's modified Eagle's medium). PASMCs were cultured in DMEM containing 10% fetal bovine serum (5% CO2 at 37° C.). The culture medium was changed every 3 days and cells were subcultured until confluence. Primary cultures of 2-4 passages were used in the experiments. Cells were examined by immunofluorescence staining of α-actin to confirm the purity of PASMCs.
(§3) PASMCs were stimulated with 5-HT or not, as indicated. Cells were treated with KMUP-1 for 24 h before 5-HT stimulation. […]
(§4) The expression of RhoA/ROCK and phosphorylation of ERK1/2 and AKT kinase in PASMCs were assessed by incubating the PASMCs with 5-HT (10 μM) for 15 min (peak time for RhoA/ROCK, ERK1/2 and AKT phosphorylation) and 5-HTT for 10 min (peak time for 5-HTT) after KMUP-1 (1-100 μM) was added to the culture of PASMCs for 24 h.

ERK1/2 = assay: 5-HT-induced phosphorylation of ERK1/2 in PASMCs; assay type: cell-based, rat
Protocol: as §2, §3, §4

[2] = tested on: monocrotaline (MCT)-induced pulmonary artery hypertension rats; assay: Mean pulmonary arterial pressure in MCT-induced PAH rats; assay type: in vivo, rat; settings: MCT-treated rats, daily treatment for 21 days, n = 5
PASMCs [3] = assay: 5-HT-induced PASMCs proliferation, MTT assay; assay type: cell-based, rat; settings: KMUP-1 1-100 μM; 5-HT 10 μM 24 h
Protocol: as §2
PASMCs were seeded into 96-well plates at a density of 1×10^4 cells/well. […] At the end of this period, MTT (2 g/L) was added to each well, and incubation proceeded at 37° C. for 4 h. Thereafter, the medium was removed and the cells were solubilized in 150 μL DMSO. The optical density (OD) of each well was determined by enzyme-linked ELISA at 540 nm of wavelength.

5-HTT = assay: Pulmonary 5-HTT expression in MCT-treated rats (immunochemistry, Western blotting); assay type: in vivo, rat
Protocol: All experiments were performed in adult male Wistar rats (300 to 350 g) in accordance with institutional guidelines after approval by the ethical review committee. PAH development and pulmonary expression of 5-HTT were examined in rats after single injection of MCT (60 mg/kg i.p.). To assess the potential preventive effect of KMUP-1 on MCT-induced PAH and associated proliferation, we assigned rats at random to 2 groups of 8 animals which received KMUP-1 at 5 mg/kg/day p.o or 1 mg/kg/day i.p. All treatments were given once a day for 3 weeks after a single MCT injection (60 mg/kg i.p.) (Abe et al., 2004). On day 21, rats were anesthetized and pulmonary artery blood pressure (MPAP) was recorded as previously described (Chung et al., 2010). Lung tissues were dissected for Western blotting and immunohistochemistry.
For 5-HTT immunostaining, the lung slides were dewaxed in 100% xylene, and the sections were then rehydrated by successive immersion first in decreasing ethanol concentrations (100%, 90%, 80%, 50% and 30%) and then in water. Endogenous peroxidase activity was blocked using H2O2 in methanol (0.3% vol/vol) for 10 min. After three PBS washes, sections were pre-incubated in PBS supplemented with 3% (wt/vol) BSA for 30 min, then incubated overnight at 4° C. with goat polyclonal anti-5-HTT antibody (Abcam Biotechnology, Cambridge, UK) diluted to 1:1000 in 1×PBS, 0.02% BSA. […]

RhoA = assay: 5-HT-induced RhoA translocation in PASMCs; assay type: cell-based, rat; settings: 1-100 μM, 24 h; 5-HT 10 μM 15 min
Protocol: as §2, with “Cells were examined by immunofluorescence staining of α-actin to confirm the purity of PASMCs.” left out
Previous reports have shown that the active form of RhoA is translocated from the cytosol to the plasma membrane, where it activates Rho kinase (Gong et al., 1997)). […] To assess membrane trans-location of RhoA, protein in membrane and cytosolic fractions was determined by standard Western blot analysis using mouse monoclonal anti-RhoA antibody (1:1000 dilution, Santa Cruz Biotechnology) and a peroxidase-labeled anti-mouse immunoglobulin (Ig) G antibody (1:1000 dilution, Santa Cruz Biotechnology, CA, USA). The relative density of membrane to cytosolic RhoA was determined using NIH imaging software. […]

PASMCs [4] = assay: 5-HT-induced PASMCs migration, wound assay model; assay type: cell-based, rat; settings: 10-100 μM; 5-HT 10 μM 24 h
Protocol: The wound edge was viewed and photographed under a microscope (Nikon, Tokyo, Japan) before and after culture for 24 h in serum-free DMEM in the presence of 5HT (10 μM). The distance the cells migrated from the wound surface was then manually measured.

5-HT2B receptor = molecular target: T1, 5-HT2B receptor (Homo sapiens, UniProt P41595); assay: Displacement of [3H]-LSD radioligand binding; settings: from Table 1
T1 construct: full length clones of 5-HT2A, 5-HT2B and 5-HT2C receptor were prepared from CHO-K1 cells; expressed in transfected cells; host or cells: CHO-K1
Protocol: As described previously (Bonhaus et al., 1995), full length clones of 5-HT2A, 5-HT2B and 5-HT2C receptor were prepared from CHO-K1 cells. […] IC50 represents the concentration of competing ligand which displaces 50% of the specific binding of the radioligand. Ki values for competition curves were calculated using the Cheng-Prusoff equation (Cheng, 2001).

[5] = tested on: pulmonary arterial smooth muscle cells (PASMCs); assay: PASMCs [Ca2+]i measurement (Fura-2/AM); assay type: cell-based, rat; settings: at 10 μM; 5-HT 10 μM
Protocol: as §2
The measurement of [Ca^2+]i in PASMCs was performed using a spectrofluorophotometer as previously reported (Wang et al., 2004). PASMCs, cultured for 2-4 passages and re-suspended by trypsin, were loaded with Fura-2/AM for the measurement of [Ca^2+]i changes in cells within the cuvette by spectrofluorophotometer (Shimadzu, RF-5301PC, Shimadzu, Japan). KMUP-1 was applied 5 min before application of 5-HT (10 μM).

[6] = pre-incubation 1-100 μM for 24 h

T1 sequence (P41595 whole entry): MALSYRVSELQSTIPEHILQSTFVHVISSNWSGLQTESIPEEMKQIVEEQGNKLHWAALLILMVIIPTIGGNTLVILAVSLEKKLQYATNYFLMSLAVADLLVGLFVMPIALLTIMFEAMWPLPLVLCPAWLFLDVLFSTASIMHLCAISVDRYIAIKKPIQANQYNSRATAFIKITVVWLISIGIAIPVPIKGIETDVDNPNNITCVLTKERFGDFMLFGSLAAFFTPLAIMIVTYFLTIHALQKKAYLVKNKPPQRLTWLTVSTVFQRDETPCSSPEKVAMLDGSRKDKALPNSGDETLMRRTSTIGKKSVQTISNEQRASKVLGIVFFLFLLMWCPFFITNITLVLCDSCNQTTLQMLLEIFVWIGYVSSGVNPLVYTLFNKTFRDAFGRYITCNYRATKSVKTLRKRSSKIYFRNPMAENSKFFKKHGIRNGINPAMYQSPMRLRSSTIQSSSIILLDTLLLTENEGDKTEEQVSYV

COC(=O)[C@@H](N)CCCNC(=N)N[N+](=O)[O-] [L-NAME, N^ω-nitro-L-arginine methyl ester, reference compound]
5-HT-induced constriction (rat pulmonary artery; L-NAME alone with 5-HT): enhanced

NCCc1c[nH]c2ccc(O)cc12 [5-HT, 5-hydroxytryptamine]
release of NO compared to the control group [1]: increased
expression of eNOS compared to the control group (eNOS; 5-HT 10 μM for 30 min): increased
increase of phosphorylation of AKT (AKT; 5-HT 10 μM for 15 min): 2.3 fold
increase of phosphorylation of ERK1/2 (ERK1/2; 5-HT 10 μM for 15 min): 2.3 fold

Cn1c(=O)c2c(ncn2CCN2CCN(c3ccccc3Cl)CC2)n(C)c1=O [KMUP-1 HCl]
mean pulmonary arterial pressure (MPAP), Table 2 [2]: 35.8 ± 3.2

Cn1c(=O)c2c(ncn2CCN2CCN(c3ccccc3Cl)CC2)n(C)c1=O [KMUP-1, 7-[2-[4-(2-chlorophenyl)piperazinyl]ethyl]-1,3-dimethyl-xanthine]
PASMCs proliferation (PASMCs [3]): dose-dependently inhibited
5-HTT expression in pulmonary artery, immunochemistry (5-HTT; 21 days after MCT injection, 5 mg/kg p.o. and 1 mg/kg i.p.): significantly decreased
5-HTT protein expression in lung tissue, Western blotting (5-HTT; MCT-treated rats): significantly reduced
5-HT stimulated RhoA translocation (RhoA): inhibited
5-HT induced PASMCs migration (PASMCs [4]): inhibited
eNOS expression (eNOS; 1-100 μM for 24 h): dose-dependently increased
contractile response of pulmonary artery to 5-HT (10 μM) (rat pulmonary artery; 0.1-100 μM): inhibited
maximum response of pulmonary artery to 5-HT in the presence of L-NAME (rat pulmonary artery; KMUP-1 10-100 μM, L-NAME 100): reduced the maximum response
affinity order of the sub-receptors (5-HT2B receptor): 5-HT2A>5-HT2B>5-HT2C
ligand specificity of the human 5-HT2B receptor versus 5-HT2A and 5-HT2C receptors (5-HT2B receptor): more selective
5-HT-induced phosphorylation of AKT (AKT; [6]): dose-dependently inhibited
inhibition of the sustained [Ca2+]i response to 5-HT [5]: 65%
5-HT-induced phosphorylation of ERK1/2 (ERK1/2; [6]): dose-dependently inhibited

From patent US20120251482A1, “USE FOR IMPROVING 5-HT FUNCTION AND ENOS EXPRESSION OF KMUPS AMINE SALTS” (KAOHSIUNG MEDICAL UNIVERSITY, priority 2011, published 2012)
